{"source": "paper PMC7413254", "about": "(Nature Communications, 2020)", "key": {"[1]": {"test_system": "non-expressing oocytes", "experiment": "cells", "assay_type": "cell-based, Xenopus laevis", "details": "non-expressing oocytes, total [3H]CQ transport, normalised to the oocyte type control", "procedure,_shortened": "(§1)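 ND96, pH 5.5, 1.5 h, 27.5 °C; uptake direction acidic outside → oocyte cytosol, mimicking efflux from digestive vacuole. Ice-cold wash stop, 10% SDS lysis, scintillation counting. Ten oocytes/treatment, ≥4 independent experiments.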"}, "[2]": {"molecular_target": "T1, PfCRT^Dd2 (Plasmodium falciparum, UniProt Q9N623, A220S/I356T/K76T/M74I/N326S/N75E/Q271E/R371I)", "T1 sequence (Q9N623 whole entry A220S/I356T/K76T/M74I/N326S/N75E/Q271E/R371I)": "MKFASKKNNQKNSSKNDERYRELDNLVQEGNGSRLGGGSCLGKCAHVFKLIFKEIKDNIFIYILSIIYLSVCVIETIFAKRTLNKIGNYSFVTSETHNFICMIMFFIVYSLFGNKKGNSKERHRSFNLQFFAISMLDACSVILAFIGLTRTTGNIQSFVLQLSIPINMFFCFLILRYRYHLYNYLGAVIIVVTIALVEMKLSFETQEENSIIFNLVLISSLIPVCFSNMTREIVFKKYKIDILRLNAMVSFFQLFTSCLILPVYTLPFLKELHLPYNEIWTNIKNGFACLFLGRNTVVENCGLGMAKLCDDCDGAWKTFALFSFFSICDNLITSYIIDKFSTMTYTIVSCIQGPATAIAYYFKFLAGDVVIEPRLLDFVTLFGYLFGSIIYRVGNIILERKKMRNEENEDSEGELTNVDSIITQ", "experiment": "[3H]CQ uptake into Xenopus oocytes, cis-inhibition by unlabelled solute", "assay_type": "cell-based", "details": "PfCRTDd2 oocytes, background [3H]CQ accumulation subtracted, normalised to oocyte type control", "procedure,_shortened": "as §1"}, "[3]": {"molecular_target": "T2, PfCRT^Ecu1110 (Plasmodium falciparum, UniProt Q9N623, A220S/I356L/K76T/N326D)", "T2 sequence (Q9N623 whole entry A220S/I356L/K76T/N326D)": "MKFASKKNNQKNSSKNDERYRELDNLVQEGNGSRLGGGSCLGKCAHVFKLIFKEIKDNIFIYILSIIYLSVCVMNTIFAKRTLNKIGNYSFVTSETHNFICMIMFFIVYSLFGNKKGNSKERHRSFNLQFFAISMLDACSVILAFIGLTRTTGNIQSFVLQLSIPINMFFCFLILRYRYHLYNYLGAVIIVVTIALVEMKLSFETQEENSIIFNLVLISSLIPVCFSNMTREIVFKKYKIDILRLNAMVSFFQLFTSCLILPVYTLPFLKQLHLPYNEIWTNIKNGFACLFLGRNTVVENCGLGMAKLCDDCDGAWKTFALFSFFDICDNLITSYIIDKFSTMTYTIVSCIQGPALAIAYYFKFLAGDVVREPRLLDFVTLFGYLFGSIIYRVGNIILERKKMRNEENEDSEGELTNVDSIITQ", "experiment": "[3H]CQ uptake into Xenopus oocytes, cis-inhibition by unlabelled solute", "assay_type": "cell-based", "details": "for Uptake of [3H]CQ (% PfCRTEcu1110 control), cis-inhibition / PfCRT-mediated [3H]CQ transport, cis-inhibition (% PfCRTEcu1110 control): PfCRTEcu1110 oocytes; for Uptake of [3H]CQ (% PfCRTEcu1110 control), cis-inhibition: total [3H]CQ transport, normalised to the oocyte type control; for PfCRT-mediated [3H]CQ transport, cis-inhibition (% PfCRTEcu1110 control): background [3H]CQ accumulation subtracted, normalised to oocyte type control; for [3H]CQ transport (% PfCRTEcu1110 control), cis-inhibition, PfCRTEcu1110: PfCRT-mediated component (background subtracted), sheet title says normalised to PfCRTDd2 control, mean ± SEM, SEM", "procedure,_shortened": "as §1"}, "[4]": {"molecular_target": "T3, PfCRT^3D7 (Plasmodium falciparum, UniProt Q8IBZ9)", "T3 sequence (Q8IBZ9 59-398)": "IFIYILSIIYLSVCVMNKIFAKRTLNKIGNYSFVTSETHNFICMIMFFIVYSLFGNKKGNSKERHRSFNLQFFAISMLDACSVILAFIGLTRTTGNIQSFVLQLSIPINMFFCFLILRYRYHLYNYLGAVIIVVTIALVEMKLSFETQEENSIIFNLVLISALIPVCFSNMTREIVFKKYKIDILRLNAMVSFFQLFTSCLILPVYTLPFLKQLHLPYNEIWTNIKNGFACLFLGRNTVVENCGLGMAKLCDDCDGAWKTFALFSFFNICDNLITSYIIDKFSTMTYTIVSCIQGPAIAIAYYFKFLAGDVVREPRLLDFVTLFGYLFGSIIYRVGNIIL", "experiment": "cell-based", "assay_type": "cell-based", "details": "PfCRT3D7 oocytes, total [3H]CQ transport, normalised to the oocyte type control", "procedure,_shortened": "as §1"}, "[5]": {"molecular_target": "T1, PfCRT^Dd2", "experiment": "cell-based", "assay_type": "cell-based", "details": "for Uptake of [3H]CQ (% PfCRTDd2 control), trans-stimulation / PfCRT-mediated [3H]CQ transport, trans-stimulation (% PfCRTDd2 control): PfCRTDd2 oocytes; for Uptake of [3H]CQ (% PfCRTDd2 control), trans-stimulation: total [3H]CQ transport, normalised to the oocyte type control; for PfCRT-mediated [3H]CQ transport, trans-stimulation (% PfCRTDd2 control): normalised to oocyte type control; for [3H]CQ transport (% PfCRTDd2 control), trans-stimulation, PfCRTDd2: PfCRT-mediated component (background subtracted), mean ± SEM, SEM", "procedure,_shortened": "(§2)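 Oocytes (ten per treatment, ≥4 independent frogs/days) were preloaded by injecting VF-6 in 25 nL ND96 at pH 5.0, 5.5, 6.0 or 7.0, or Na^+-free choline buffer, then uptake run 1.5 h, 27.5 °C, ND96 pH 5.5 by default. Internal concentrations assumed ~400 nL oocyte volume.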"}, "[6]": {"molecular_target": "T4, PfNT1 (Plasmodium falciparum, UniProt Q8IDM6)", "T4 construct": "expressed in transfected cells; host or cells: Xenopus laevis oocytes (stage V-VI), cRNA-injected", "T4 sequence (Q8IDM6 whole entry)": "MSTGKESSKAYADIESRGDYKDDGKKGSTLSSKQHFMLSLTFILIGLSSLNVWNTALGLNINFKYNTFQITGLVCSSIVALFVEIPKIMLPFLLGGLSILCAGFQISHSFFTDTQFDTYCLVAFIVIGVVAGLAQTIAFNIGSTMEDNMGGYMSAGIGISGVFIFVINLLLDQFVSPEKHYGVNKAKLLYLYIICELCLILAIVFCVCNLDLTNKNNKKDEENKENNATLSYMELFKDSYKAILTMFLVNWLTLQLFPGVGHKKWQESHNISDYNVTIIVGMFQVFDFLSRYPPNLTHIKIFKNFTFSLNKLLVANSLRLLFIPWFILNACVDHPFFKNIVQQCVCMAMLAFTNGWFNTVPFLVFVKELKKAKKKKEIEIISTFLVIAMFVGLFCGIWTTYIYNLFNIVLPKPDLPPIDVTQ", "experiment": "cell-based", "assay_type": "cell-based", "details": "PfNT1 oocytes, total [3H]CQ transport, normalised to the oocyte type control", "procedure,_shortened": "as §2"}, "[7]": {"molecular_target": "T2, PfCRT^Ecu1110", "experiment": "cell-based", "assay_type": "cell-based", "details": "for Uptake of [3H]CQ (% PfCRTEcu1110 control), trans-stimulation / PfCRT-mediated [3H]CQ transport, trans-stimulation (% PfCRTEcu1110 control): PfCRTEcu1110 oocytes; for Uptake of [3H]CQ (% PfCRTEcu1110 control), trans-stimulation: total [3H]CQ transport, normalised to the oocyte type control; for PfCRT-mediated [3H]CQ transport, trans-stimulation (% PfCRTEcu1110 control): normalised to oocyte type control; for [3H]CQ transport (% PfCRTDd2 control), trans-stimulation, PfCRTEcu1110: PfCRT-mediated component (background subtracted), sheet title says normalised to PfCRTDd2 control, mean ± SEM, SEM", "procedure,_shortened": "as §2"}, "[8]": {"molecular_target": "T3, PfCRT^3D7", "experiment": "cell-based", "assay_type": "cell-based", "details": "PfCRT3D7 oocytes; for Uptake of [3H]CQ (% PfCRT3D7 control), trans-stimulation: total [3H]CQ transport, normalised to the oocyte type control; for PfCRT-mediated [3H]CQ transport, trans-stimulation (% PfCRT3D7 control): normalised to oocyte type control", "procedure,_shortened": "as §2"}, "[9]": {"test_system": "non-expressing oocytes", "assay_type": "cell-based, Xenopus laevis", "details": "non-expressing oocytes, total [3H]CQ transport, normalised to the oocyte type control", "procedure,_shortened": "as §2"}, "[10]": {"details": "[test solute]i = 45 mM (30 mM for some solutes due to solubility)"}, "[11]": {"details": "[test solute]i = 5 mM (intracellular)"}, "[12]": {"details": "[test solute]i = 45 mM (intracellular; 30 mM for some solutes due to solubility)"}, "[13]": {"details": "[test solute]i = 5 mM (injected)"}}, "note": "Like-named read-outs stand apart in the source and are kept apart here."}
{"substance": "DPVN [DN-4]", "values": [{"measurement": "Uptake of [3H]CQ (% non-expressing oocyte control), cis-inhibition", "setting": "[1]; [test solute] = 0.5 mM", "result": "98 ± 4.6 % non-expressing oocyte control"}, {"measurement": "Uptake of [3H]CQ (% non-expressing oocyte control), cis-inhibition", "setting": "[1]; [test solute] = 1 mM", "result": "99 ± 4.7 % non-expressing oocyte control"}, {"measurement": "Uptake of [3H]CQ (% non-expressing oocyte control), cis-inhibition", "setting": "[1]; [test solute] = 2 mM", "result": "99 ± 3.7 % non-expressing oocyte control"}, {"measurement": "PfCRT-mediated [3H]CQ transport, cis-inhibition (% PfCRTDd2 control)", "setting": "[2]; [test solute] = 0.5 mM", "result": "63 ± 3.1", "unit": "% PfCRTDd2 control"}, {"measurement": "PfCRT-mediated [3H]CQ transport, cis-inhibition (% PfCRTDd2 control)", "setting": "[2]; [test solute] = 1 mM", "result": "47 ± 3.1", "unit": "% PfCRTDd2 control"}, {"measurement": "PfCRT-mediated [3H]CQ transport, cis-inhibition (% PfCRTDd2 control)", "setting": "[2]; [test solute] = 2 mM", "result": "42 ± 3.2", "unit": "% PfCRTDd2 control"}, {"measurement": "Uptake of [3H]CQ (% PfCRTEcu1110 control), cis-inhibition", "setting": "[3]; [test solute] = 0.5 mM", "result": "73 ± 4.4", "unit": "% PfCRTEcu1110 control"}, {"measurement": "Uptake of [3H]CQ (% PfCRTEcu1110 control), cis-inhibition", "setting": "[3]; [test solute] = 1 mM", "result": "66 ± 3.8", "unit": "% PfCRTEcu1110 control"}, {"measurement": "Uptake of [3H]CQ (% PfCRTEcu1110 control), cis-inhibition", "setting": "[3]; [test solute] = 2 mM", "result": "52 ± 3.3", "unit": "% PfCRTEcu1110 control"}, {"measurement": "PfCRT-mediated [3H]CQ transport, cis-inhibition (% PfCRTEcu1110 control)", "setting": "[3]; [test solute] = 1 mM", "result": "61 ± 2.9", "unit": "% PfCRTEcu1110 control"}, {"measurement": "PfCRT-mediated [3H]CQ transport, cis-inhibition (% PfCRTEcu1110 control)", "setting": "[3]; [test solute] = 2 mM", "result": "48 ± 2.4", "unit": "% PfCRTEcu1110 control"}, {"measurement": "[3H]CQ transport (% PfCRTEcu1110 control), cis-inhibition, PfCRTEcu1110", "setting": "[3]; [test solute] = 0.5 mM", "result": "21 ± 0.6", "unit": "% PfCRTEcu1110 control"}, {"measurement": "[3H]CQ transport (% PfCRTEcu1110 control), cis-inhibition, PfCRTEcu1110", "setting": "[3]; [test solute] = 1 mM", "result": "19 ± 0.4", "unit": "% PfCRTEcu1110 control"}, {"measurement": "[3H]CQ transport (% PfCRTEcu1110 control), cis-inhibition, PfCRTEcu1110", "setting": "[3]; [test solute] = 2 mM", "result": "15 ± 0.1", "unit": "% PfCRTEcu1110 control"}, {"measurement": "Uptake of [3H]CQ (% PfCRT3D7 control), cis-inhibition", "setting": "[4]; [test solute] = 0.5 mM", "result": "100 ± 2.6", "unit": "% PfCRT3D7 control"}, {"measurement": "Uptake of [3H]CQ (% PfCRT3D7 control), cis-inhibition", "setting": "[4]; [test solute] = 1 mM", "result": "100 ± 3.7", "unit": "% PfCRT3D7 control"}, {"measurement": "Uptake of [3H]CQ (% PfCRT3D7 control), cis-inhibition", "setting": "[4]; [test solute] = 2 mM", "result": "100 ± 4.8", "unit": "% PfCRT3D7 control"}, {"measurement": "Uptake of [3H]CQ (% PfCRTDd2 control), trans-stimulation", "setting": "[5]; [test solute]i = 5 mM", "result": "103 ± 1.1", "unit": "% PfCRTDd2 control"}, {"measurement": "Uptake of [3H]CQ (% PfCRTDd2 control), trans-stimulation", "setting": "[5]; [10]", "result": "100 ± 3.8", "unit": "% PfCRTDd2 control"}, {"measurement": "PfCRT-mediated [3H]CQ transport, trans-stimulation (% PfCRTDd2 control)", "setting": "[5]; [11]", "result": "99 ± 4.1", "unit": "% PfCRTDd2 control"}, {"measurement": "PfCRT-mediated [3H]CQ transport, trans-stimulation (% PfCRTDd2 control)", "setting": "[5]; [12]", "result": "98 ± 3.9", "unit": "% PfCRTDd2 control"}, {"measurement": "[3H]CQ transport (% PfCRTDd2 control), trans-stimulation, PfCRTDd2", "setting": "[5]; [13]", "result": "99 ± 4.1", "unit": "% PfCRTDd2 control"}, {"measurement": "[3H]CQ transport (% PfCRTDd2 control), trans-stimulation, PfCRTDd2", "setting": "[5]; [10]", "result": "98 ± 3.9", "unit": "% PfCRTDd2 control"}, {"measurement": "Uptake of [3H]CQ (% PfNT1 control), trans-stimulation", "setting": "[6]; [test solute]i = 5 mM", "result": "100 ± 3.2", "unit": "% PfNT1 control"}, {"measurement": "Uptake of [3H]CQ (% PfNT1 control), trans-stimulation", "setting": "[6]; [10]", "result": "99 ± 3.2", "unit": "% PfNT1 control"}, {"measurement": "Uptake of [3H]CQ (% PfCRTEcu1110 control), trans-stimulation", "setting": "[7]; [test solute]i = 5 mM", "result": "105 ± 3.6", "unit": "% PfCRTEcu1110 control"}, {"measurement": "Uptake of [3H]CQ (% PfCRTEcu1110 control), trans-stimulation", "setting": "[7]; [10]", "result": "100 ± 2.2", "unit": "% PfCRTEcu1110 control"}, {"measurement": "PfCRT-mediated [3H]CQ transport, trans-stimulation (% PfCRTEcu1110 control)", "setting": "[7]; [11]", "result": "102 ± 2.3", "unit": "% PfCRTEcu1110 control"}, {"measurement": "PfCRT-mediated [3H]CQ transport, trans-stimulation (% PfCRTEcu1110 control)", "setting": "[7]; [12]", "result": "98 ± 3.2", "unit": "% PfCRTEcu1110 control"}, {"measurement": "[3H]CQ transport (% PfCRTDd2 control), trans-stimulation, PfCRTEcu1110", "setting": "[7]; [13]", "result": "31 ± 1.4", "unit": "% PfCRTEcu1110 control"}, {"measurement": "[3H]CQ transport (% PfCRTDd2 control), trans-stimulation, PfCRTEcu1110", "setting": "[7]; [10]", "result": "30 ± 1.4", "unit": "% PfCRTEcu1110 control"}, {"measurement": "Uptake of [3H]CQ (% PfCRT3D7 control), trans-stimulation", "setting": "[8]; [test solute]i = 5 mM", "result": "121 ± 3.4", "unit": "% PfCRT3D7 control"}, {"measurement": "Uptake of [3H]CQ (% PfCRT3D7 control), trans-stimulation", "setting": "[8]; [10]", "result": "153 ± 5.0", "unit": "% PfCRT3D7 control"}, {"measurement": "PfCRT-mediated [3H]CQ transport, trans-stimulation (% PfCRT3D7 control)", "setting": "[8]; [11]", "result": "116 ± 2.3", "unit": "% PfCRT3D7 control"}, {"measurement": "PfCRT-mediated [3H]CQ transport, trans-stimulation (% PfCRT3D7 control)", "setting": "[8]; [12]", "result": "147 ± 4.2", "unit": "% PfCRT3D7 control"}, {"measurement": "Uptake of [3H]CQ (% non-expressing oocyte control), trans-stimulation", "setting": "[9]; [test solute]i = 5 mM", "result": "99 ± 4.8 % non-expressing oocyte control"}, {"measurement": "Uptake of [3H]CQ (% non-expressing oocyte control), trans-stimulation", "setting": "[9]; [10]", "result": "99 ± 1.0 % non-expressing oocyte control"}]}
